Entries after “also recorded” stand apart in the source; their conditions may differ.
System: Alu RNA-induced RPE degeneration
Test: Alu RNA-induced RPE degeneration in wild-type mice (fundus photography, ZO-1 flat mounts)
Format: in vivo, mouse
Conditions: WT mice
Experimental: Assessment of RPE degeneration. Subretinal injections were performed as previously described (Kaneko et al., 2011; Tarallo et al., 2012; Kerur et al., 2013; Fowler et al., 2014; Kim et al., 2014). Seven days after subretinal injection, RPE health was assessed by fundus photography and immunofluorescence staining of zonula occludens-1 (ZO-1) on RPE flat mounts (whole mount of posterior eye cup containing RPE and choroid layers). Mouse RPE/choroid flat mounts were fixed with 2% paraformaldehyde, stained with rabbit polyclonal antibodies against mouse ZO-1 (1:100; Invitrogen Corp. Carlsbad, Calif., United States of America) and visualized with Alexa-594 (Invitrogen Corp.). All images were obtained by microscopy (Model SP-5 (Leica Microsystems, Inc., Buffalo Grove, Ill., United States of America) or Nikon MR confocal microscope system (Nikon Instruments Inc. Melville, N.Y., United States of America). Imaging was performed by an operator blinded to the group assignments.
Quantification of RPE degeneration. Quantification of RPE degeneration was performed using two methodologies (binary assignment and cellular morphometry) as described previously (Kerur et al., 2018): Binary assignment (healthy versus unhealthy; Kerur et al., 2013; Fowler et al., 2014; Kim et al., 2014; Kerur et al., 2018) was independently performed by two blinded raters (inter-rater agreement=99.7%; Pearson r2=0.986, P<0.0001; Fleiss x=0.993, P<0.0001). Quantifying cellular morphometry for hexagonally packed cells was performed in semi-automated fashion by three masked graders by adapting our previous analysis of the planar architecture of corneal endothelial cell density (Ach et al., 2015), which resembles the RPE in its polygonal tessellation. Polymegethism (coefficient of variation of cell size), a prominent geometric feature of RPE cells in GA (Kaneko et al., 2011; Dridi et al., 2012; Grossniklaus et al., 2013; Ach et al., 2015), was quantified using the Konan Cell Check software (Ver. 4.0.1), a commercial U.S. FDA-cleared software that has been used for registration clinical trials, as previously described (Kerur et al., 2018).
Subretinal and intravitreous injections. Subretinal injections (1 μl for mice, 3 μl for rat) or intravitreous injections (0.5 μl for mice, 2 μl for rat) in mice or rat were performed using a 35-gauge needle (Ito Co. Fuji, Japan). In vivo transfection of Alu RNA or mutant Alu RNA (3.6-300 ng per eye); Alu complementary DNA (cDNA; 0.0036-90 ng per eye); Alu reverse sequence cDNA (3.6-90 ng per eye); or 7SL cDNA (3.6-90 ng per eye) was performed using 10% NEUROPORTER™ transfection reagent (Genlantis, San Diego, Calif., United States of America) as previously described (Kaneko et al., 2011; Tarallo et al., 2012). […]

[1] = intravitreous, high (500 μmol) doses

L1 siRNA: siRNA targeting L1; cholesterol-conjugated mouse L1 siRNA (SEQ ID NOs: 48 and 49) in vivo, human L1 siRNA sequences in human cells (chain 1 ACUAUUACUCUGAUACCTT; chain 2 UGUACUAAGGUCAAAUCTT; cholesterol conjugated, position not given here)
Alu RNA-induced RPE degeneration (subretinal cholesterol-conjugated L1 siRNA vs control siRNA): prevented Alu RNA-induced RPE degeneration in wild-type mice; also recorded: blocked Alu RNA induced RPE degeneration

O=C1Nc2ccc(Cl)cc2[C@@](C#CC2CC2)(C(F)(F)F)O1 [EFV, efavirenz]
Alu RNA-induced RPE degeneration [1]: blocked Alu RNA toxicity; also recorded: inhibited

CC(C)Nc1cccnc1N1CCN(C(=O)c2cc3cc(NS(C)(=O)=O)ccc3[nH]2)CC1 [DLV, delavirdine]
Alu RNA-induced RPE degeneration [1]: blocked Alu RNA toxicity; also recorded: inhibited

Cc1ccnc2c1NC(=O)c1cccnc1N2C1CC1 [NVP, nevirapine]
Alu RNA-induced RPE degeneration [1]: did not prevent Alu RNA-induced RPE degeneration at low or high doses

Reference: patent publication US20210348164A1, “ENDOGENOUS CYTOPLASMIC ALU COMPLEMENTARY DNA IN AGE-RELATED MACULAR DEGENERATION” (University of Virginia Patent Foundation, priority 2018, published 2021)
